Data on two compounds can be found in patent publication US20260069604A1, “NOVEL EQUILIBRATIVE NUCLEOSIDE TRANSPORTER INHIBITORS AND METHODS OF MAKING AND USING SAME” (Duke University, priority 2022, published 2026).

Numbering of substitutions follows the chain as printed. “Also recorded” adds a separate entry of the source.

Data set [1] addresses T1, hENT1cryst mutants (M33I, F307A, F307Y) (Homo sapiens, UniProt Q99808, DEL244-275/F307A/L168F/N288K/P175A).
T1 construct: GFP; FLAG; His10; made in house
T1 sequence (Q99808 with tags, fused parts or gaps L168F/P175A/DEL244-275/N288K/F307A): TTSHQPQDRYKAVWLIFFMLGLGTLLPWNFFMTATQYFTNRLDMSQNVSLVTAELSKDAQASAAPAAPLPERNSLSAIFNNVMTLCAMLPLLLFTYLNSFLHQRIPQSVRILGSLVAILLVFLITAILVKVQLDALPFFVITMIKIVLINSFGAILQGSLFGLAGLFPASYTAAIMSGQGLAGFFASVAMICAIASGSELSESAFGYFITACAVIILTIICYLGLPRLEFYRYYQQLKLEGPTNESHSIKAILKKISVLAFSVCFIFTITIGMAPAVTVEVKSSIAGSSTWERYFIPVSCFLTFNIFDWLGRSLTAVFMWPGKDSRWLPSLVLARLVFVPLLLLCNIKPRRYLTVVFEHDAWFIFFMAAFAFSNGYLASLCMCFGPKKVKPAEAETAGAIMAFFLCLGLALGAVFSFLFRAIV
Put plainly: cold competition displacement of 3H-NBMPR by dilazep, hENT1cryst mutants. In kind it is binding. The conditions noted are these: F307A mutant vs hENT1cryst. An excerpt: (§1) This is substantiated by the equilibrium binding data, as both Q158S and Q158N ablate 3H-NBMPR binding capacity (FIG. 13B). […] This finding is consistent with previous reports on inhibitor sensitivities to substitutions at position 33 of hENT1.
A general note: In a radioligand displacement assay an active substance lowers the binding of a labelled ligand.

The target of data set [2] is T2, hENT1cryst mutants (M33I, F307A, F307Y) (Homo sapiens, UniProt Q99808, DEL244-275/F307Y/L168F/N288K/P175A).
T2 construct: GFP; FLAG; His10; made in house
T2 sequence (Q99808 with tags, fused parts or gaps L168F/P175A/DEL244-275/N288K/F307Y): T1 sequence (Q99808 with tags, fused parts or gaps L168F/P175A/DEL244-275/N288K/F307A) with A274Y
The description is as above. The conditions noted are these: F307Y mutant vs hENT1cryst. It is filed as binding.
Description: as §1

The target of data set [3] is T3, hENT1cryst mutants (M33I, F307A, F307Y) (Homo sapiens, UniProt Q99808, DEL244-275/L168F/M33I/N288K/P175A).
T3 construct: GFP; FLAG; His10; made in house
T3 sequence (Q99808 with tags, fused parts or gaps M33I/L168F/P175A/DEL244-275/N288K): T1 sequence (Q99808 with tags, fused parts or gaps L168F/P175A/DEL244-275/N288K/F307A) with M32I, A274F
The description is as above. In kind it is binding. The conditions noted are these: M33I mutant vs hENT1cryst.
Description: as §1

Data set [4] is described as follows: plasma, brain and spinal cord pharmacokinetics after subcutaneous dosing. The conditions noted are these: for distribution into CNS tissue: brain and spinal cord, s.c. dosing, in equilibrium with plasma, no accumulation. It is filed as in vivo, Male CD-1 mice. The protocol: FIG. 27A-D show plasma (FIG. 27A), brain (FIG. 27B), and spinal cord (FIG. 27C) pharmacokinetics (PK) of JH-ENT-01 and dilazep. […] Male CD-1 mice (n=3 per time-point) were dosed subcutaneously (inj. volume: 8 μL/g BW) with 30 mg/kg of JH-ENT-01 (free base) and 29 mg/kg (molar equivalent) of dilazep dihydrochloride. Both drugs were formulated in 5% DMSO, 20% PEG-400, 20% propylene glycol, and 55% saline. Blood and tissues were collected at 10 min, 0.5, 1.5, 4.5, 8, 12, and 24 h. Following collection, the animals were perfused with saline. Liquid chromatography-tandem-mass spectrometry (LC/MS/MS) was used to determine drug concentration in samples. Pharmacokinetic parameters were calculated by non-compartmental approach within Win-Nonlin software. […] The distribution of both drugs into CNS tissue is high and is in equilibrium with plasma drug concentration (i.e., no drug accumulation in CNS).

The subject of data set [5] is SNI-induced neuropathic pain. Put plainly: SNI-induced neuropathic pain measured by PWF. It is filed as in vivo. The conditions noted are these: i.t., 100 nmol; p<0.05; n=4 males per group.
Data set [6] deals with T4, hENT1cryst (Homo sapiens, UniProt Q99808, DEL243-274/L168F/N288K/P175A).
T4 construct: GFP; FLAG; His10; made in house
T4 sequence (Q99808 with tags, fused parts or gaps L168F/P175A/DEL243-274/N288K): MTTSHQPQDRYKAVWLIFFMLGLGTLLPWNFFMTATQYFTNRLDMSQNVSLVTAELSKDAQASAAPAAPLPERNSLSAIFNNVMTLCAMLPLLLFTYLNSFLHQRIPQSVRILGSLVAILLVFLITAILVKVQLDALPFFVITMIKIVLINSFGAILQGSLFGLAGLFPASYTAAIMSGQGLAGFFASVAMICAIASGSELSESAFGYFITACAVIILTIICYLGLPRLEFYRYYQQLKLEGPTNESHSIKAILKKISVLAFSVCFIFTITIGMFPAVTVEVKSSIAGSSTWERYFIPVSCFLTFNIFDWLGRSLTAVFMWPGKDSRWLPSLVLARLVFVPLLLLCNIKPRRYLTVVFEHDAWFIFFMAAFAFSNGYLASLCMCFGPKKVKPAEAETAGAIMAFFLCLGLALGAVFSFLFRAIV
Put plainly: cold-competition SPA: displacement of 3H-NBMPR from detergent purified hENT1cryst. It is filed as binding. The method, then: The binding of cold competitor (dilazep control or JH-ENT-01) to hENT1cryst (85 nM) was assessed by the displacement of ^3H-NBMPR (10 nM) from the transporter (n=6 technical replicates from two representative experiments shown, error bars represent S.E.M.) FIG. 18A-C show initial functional characterization of novel hENT1 inhibitors.
A scintillation proximity assay was developed to measure binding of ^3H-NBMPR to hENT1-GFP fusion expressed and detergent solubilized from transiently transfected HEK293T cells (see Methods for details). By successively heating the assay mixture at increasing temperatures and measuring binding signal with scintillation counting, Tm values were determined for engineered hENT1 constructs bearing point mutations or truncations of disordered loops. Point mutations were designed based on a consensus approach, which is described in the Methods section of this chapter. A total of 40 point mutations or disordered-loop truncations were screened with this ^3H-NBMPR SPA approach (FIG. 4A). Mutations L168F, P175A and N288K were identified to substantially increase Tm. […] Importantly, hENT1cryst mediates nucleoside transport to a level consistent with a previous report in proteoliposomes (FIG. 3A) and is also functionally active in when expressed in oocytes (FIG. 3B). […]

The target of data set [7] is T5, hENT2 (Homo sapiens, UniProt Q14542).
T5 construct: expressed in transfected cells; host or cells: oocytes (X. laevis)
T5 sequence (Q14542 1-456): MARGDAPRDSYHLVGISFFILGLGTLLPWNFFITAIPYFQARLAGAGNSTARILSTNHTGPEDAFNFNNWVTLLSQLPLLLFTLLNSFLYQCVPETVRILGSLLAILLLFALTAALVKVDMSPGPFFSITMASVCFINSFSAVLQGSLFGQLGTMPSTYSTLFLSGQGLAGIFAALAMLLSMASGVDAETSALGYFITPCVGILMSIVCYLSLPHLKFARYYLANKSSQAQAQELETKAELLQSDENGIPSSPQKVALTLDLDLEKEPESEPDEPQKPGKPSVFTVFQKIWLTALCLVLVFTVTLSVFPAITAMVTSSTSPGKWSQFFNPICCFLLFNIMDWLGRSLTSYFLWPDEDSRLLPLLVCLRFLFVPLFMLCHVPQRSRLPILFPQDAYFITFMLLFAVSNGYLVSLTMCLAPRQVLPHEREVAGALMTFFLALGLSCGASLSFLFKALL
Put plainly: 3H-adenosine uptake in oocytes expressing hENT2. In kind it is cell-based. The conditions noted are these: initial experiment n=1, FIG. 19. The method, then: (§2) Initial experiment (n=1 replicates) showing JH-ENT-01 inhibits both hENT1 and hENT2 mediated uptake of ^3H-adenosine.
(§3) The subtype specificities for these compounds are currently unknown and pending further investigation with functional assays. Towards this end, established assays in oocytes permitted the measurement of nucleoside transport activity for multiple ENT subtypes (FIG. 18C) and the novel inhibitors were tested for their activities on different ENT subtypes (FIG. 19).

Data set [8] deals with T6, hENT1 (Homo sapiens, UniProt Q99808).
T6 construct: expressed in transfected cells; host or cells: oocytes (X. laevis)
T6 sequence (Q99808 1-456): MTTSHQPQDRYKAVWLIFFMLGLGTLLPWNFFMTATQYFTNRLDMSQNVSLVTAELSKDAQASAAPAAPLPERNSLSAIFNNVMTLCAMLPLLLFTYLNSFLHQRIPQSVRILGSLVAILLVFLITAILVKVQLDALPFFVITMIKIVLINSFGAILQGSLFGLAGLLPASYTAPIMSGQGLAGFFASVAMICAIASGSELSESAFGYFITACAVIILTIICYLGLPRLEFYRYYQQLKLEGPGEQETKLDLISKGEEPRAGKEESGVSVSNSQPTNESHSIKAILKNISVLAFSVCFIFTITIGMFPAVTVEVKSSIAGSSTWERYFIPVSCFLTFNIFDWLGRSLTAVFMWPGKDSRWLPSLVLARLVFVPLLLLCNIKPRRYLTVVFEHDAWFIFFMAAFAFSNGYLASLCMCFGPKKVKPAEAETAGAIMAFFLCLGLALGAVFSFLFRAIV
Put plainly: 3H-adenosine uptake in oocytes expressing hENT1. It is filed as cell-based. The conditions noted are these: initial experiment n=1, FIG. 19. The protocol:
as §2, §3

[9] abbreviates: s.c. 30 mg/kg JH-ENT-01 (free base) vs 29 mg/kg dilazep dihydrochloride.

Regarding `COc1cc(C(=O)OCCCN2CCCN(CCCOC(=O)c3cc(OC)c(OC)c(OC)c3)CC2)cc(OC)c1OC` [dilazep], the “increase in apparent Kd for dilazep” value in data set [1] was around 90 fold; in data set [3] it was around 3 fold. The “decrease in apparent Kd for dilazep” value in data set [2] is around 4 fold. In data set [4], the “distribution into CNS tissue” value was “high”.
For `COc1cc(C(=O)OCCCN2CCCN(CCCOC(=O)c3cc(OC)c(OC)c(OCc4ccc([N+](=O)[O-])cc4)c3)CC2)cc(OC)c1OC` [JH-ENT-01], the “effect on SNI-induced neuropathic pain (PWF)” value in data set [5] was “reversing SNI-induced neuropathic pain”. The “increase in binding affinity to hENT1cryst” value in data set [6] (cold competitor vs dilazep control, hENT1cryst 85 nM, 3H-NBMPR 10 nM) is listed as around 2 fold. Also, in data set [6] (in words, compared to dilazep (FIG. 17)), the binding to target result was “improved binding to target compared to dilazep”. In addition, in data set [7], the “inhibition of hENT2 mediated uptake of 3H-adenosine” value is recorded as “inhibits”. Also, the “distribution into CNS tissue” value in data set [4] was “high”. In data set [4] (setting [9]), the “half-life compared to dilazep” value is “longer half-life” and the “plasma AUC compared to dilazep” value was “higher plasma AUC”. Also, in data set [8], the “inhibition of hENT1 mediated uptake of 3H-adenosine” value is “inhibits; also recorded: retains potent inhibition activity”.
